From US20220054532A1, “VETERINARY COMPOSITIONS AND METHODS OF USE THEREFOR” (priority 2019, published 2022)

Columns and labels:
Assay type in all cases: in vivo
[1] = tested on: dogs suffering from cognitive dysfunction syndrome; experiment: Example 2: cognitive decline, Cognitive Dysfunction Screening Checklist; conditions: for Average Initial Score: day 0 (before treatment); for Average Final Score: day 60, BID
Source text: (§1) This example examines the ability of embodiments of the invention versus Anipryl® to treat cognitive decline.
The patient group is twenty dogs suffering from cognitive dysfunction syndrome, as determined by the Cognitive Dysfunction Screening Checklist. See G. Landsberg et al., 2003 HANDBOOK OF BEHAVIOR PROBLEMS OF THE DOG AND CAT (Elsevier Science Limited) (2003). The twenty dogs are broken into five groups of four dogs. The first group receives Anipryl® as the sole active agent; the second group receives a composition comprising HMW HA as the sole active agent; the third group receives a composition comprising CBD as the sole active agent; the fourth group receives a composition comprising HMW HA and CBD as the active agents; and the fifth group receives a composition comprising HMW HA, CBD, nicotinamide adenine dinucleotide (“NAD”), and phosphatidylserine as the active agents.
(§2) Each composition is administered for a period of sixty (60) days, twice per day (“BID”). The owner completes the Checklist on days 0 (“Initial Score”), 15, 30, 45, and 60 (“Final Score”) of treatment.
Each group is evaluated and Checklist scores averaged. The following scores are observed and the results depicted in FIG. 2: […]

[2] = tested on: dogs suffering from joint inflammation; experiment: Example 4: joint inflammation, thermal imaging (canine); conditions: over the inflamed joint, 60 days BID
Source text: This example examines the ability of embodiments of the invention versus Cosequin® to treat joint inflammation.
The first patient group is twenty dogs suffering from joint inflammation. The second patient group is twenty cats suffering from joint inflammation. The third patient group is twenty horses suffering from joint inflammation. Each patient group is broken into five groups of four animals. The first groups receive Cosequin® as the sole active agent; the second groups receive a composition comprising HMW HA as the sole active agent; the third groups receive a composition comprising CBD as the sole active agent; the fourth groups receive a composition comprising HMW HA and CBD as the active agents; and the fifth groups receive a composition comprising HMW HA, CBD, Boswellia, and superoxide dismutase (“SOD”) as the active agents.
Each composition is administered for a period of sixty (60) days, BID. Efficacy is determined by a decrease in body temperature over the inflamed joint, as measured by thermal imaging (e.g., via Digatherm device). Thermal imaging is performed on days 0 (“Initial Score”), 15, 30, 45, and 60 (“Final Score”) of treatment.
The following canine scores are observed and the results depicted in FIG. 4a: […]

[3] = tested on: dogs suffering from seizures; experiment: Example 6: seizures in dogs; conditions: seizure scale 1 (seizure-free) to 10 (daily or multiple seizures); for Initial Score: day 0; for Final Score: day 60, BID
Source text: This example examines the ability of embodiments of the invention versus phenobarbital to treat seizures.
The patient group is twenty-four dogs suffering from seizures as diagnosed by their referring veterinarian. The patient group is broken into six groups of four animals. The first group receives phenobarbital as the sole active agent; the second group receives a composition comprising phenobarbital and Keppra®; the third group receives a composition comprising HMW HA as the sole active agent; the fourth group receives a composition comprising CBD as the sole active agent; the fifth group receives a composition comprising HMW HA and CBD as the active agents; and the sixth group receives a composition comprising HMW HA, CBD, valerian root, and scutillaria as the active agents.
Each composition is administered for a period of sixty (60) days, BID. Each dog is evaluated on days 0 (“Initial Score”), 15, 30, 45, and 60 (“Final Score”) of treatment. The results are averaged and characterized on a scale of 1 (seizure-free) to 10 (daily seizures or multiple seizures during the event).
The following canine scores are observed and the results depicted in FIG. 6: […]

[4] = tested on: dogs suffering from cognitive dysfunction syndrome; experiment: Example 10: cognitive decline, Cognitive Dysfunction Screening Checklist (CBD Complex); conditions: for Average Initial Score: day 0 (before treatment); for Average Final Score: day 60, BID
Source text: as §1
The patient group is twenty dogs suffering from cognitive dysfunction syndrome, as determined by the Cognitive Dysfunction Screening Checklist. See G. Landsberg et al., 2003 HANDBOOK OF BEHAVIOR PROBLEMS OF THE DOG AND CAT (Elsevier Science Limited) (2003). The twenty dogs are broken into five groups of four dogs. The first group receives Anipryl® as the sole active agent; the second group receives a composition comprising HMW HA as the sole active agent; the third group receives a composition comprising CBD as the sole active agent; the fourth group receives a composition comprising HMW HA and CBD Complex as the active agents; and the fifth group receives a composition comprising HMW HA, CBD Complex, nicotinamide adenine dinucleotide (“NAD”), and phosphatidylserine as the active agents.
as §2
Each group is evaluated and Checklist scores averaged. The following scores are observed and the results depicted in FIG. 10: […]

[5] = tested on: dogs suffering from GI-specific inflammation; experiment: Example 11: GI-specific inflammation, owner-rated symptom reduction (canine, CBD Complex); conditions: canine (FIG. 11a), symptom reduction score 0 (no reduction) to 4 (resolution of symptoms); for Final Score: after 28 days BID
Source text: This example examines the ability of embodiments of the invention versus Pepcid® to treat unwanted GI-specific inflammation characterized by gastritis, reflux, vomiting, diarrhea, and inappetence.
The first patient group is twenty dogs suffering from GI-specific inflammation. The second patient group is twenty cats suffering from GI-specific inflammation. Each patient group is broken into five groups of four animals. The first groups receive Pepcid® as the sole active agent; the second groups receive a composition comprising HMW HA as the sole active agent; the third groups receive a composition comprising CBD as the sole active agent; the fourth groups receive a composition comprising HMW HA and CBD Complex as the active agents; and the fifth groups receive a composition comprising HMW HA, CBD Complex, and glutathione as the active agents.
Each composition is administered for a period of twenty-eight (28) days, BID. The owner observes potential reduction of symptoms at the end of treatment and rates the reduction as no reduction (score of 0), mild reduction (score of 1), moderate reduction (score of 2), significant reduction (score of 3), or resolution of symptoms (score of 4).

Molecule | Average Initial Score [1] | Average Final Score [1] | Reduction in Temperature (° F.) [2] | Initial Score [3] | Final Score [3] | Average Initial Score [4] | Average Final Score [4] | Final Score [5] | Initial Score [5]
C=C(C)[C@@H]1CCC(C)=C[C@H]1c1c(O)cc(CCCCC)cc1O [CBD Alone, 2-[(1R,6R)-3-methyl-6-prop-1-en-2-ylcyclohex-2-en-1-yl]-5-pentylbenzene-1,3-diol] | 3 | 1.5 | 1.7 ° F. | 9 | 4 | 3 | 1.5 | 2 | 0
hyaluronic acid [HMW HA Alone] | 3 | 2 | 1.9 ° F. | 9 | 5 | 3 | 2 | 3 | 0
